Measurements reported in paper PMC11725774 (Cancer Research Communications, 2025).
Like-named read-outs stand apart in the source and are kept apart here.

How the values were obtained:
[1] = Pharmacokinetics and tissue distribution in mice; format: in vivo
[2] = Tolerability in orthotopic AML models; format: in vivo; settings: daily dosing at 30 mg/kg, all three orthotopic models
Text: ; Fig. 3A). The increase in the MOLM-13 model was from 37 to 75 days (P < 0.0001; Fig. 3B) and in the MOLM-14 model, it was from 17 to 65 days (Fig. 3C).

[3] = Repeat daily dose toxicity and safety pharmacology in rats; format: in vivo
Text: In both species, all adverse events were reversible. There were no alterations in clinical chemistry parameters. Neuropharmacology and respiratory function assessment in rats disclosed no concerns.

[4] = test system: TUS/R line 3 (MOLM-14); assay: Growth inhibition of TUS-resistant subline; format: cell-based, human; settings: Homo sapiens
[5] = target: T1, RSK-2 (Homo sapiens, UniProt P51812); assay: Broad kinase inhibition screen, recombinant kinase; format: biochemical; settings: broad kinase inhibition screens
T1 construct: purchased Thermo Fisher Scientific or Reaction Biology, Inc. (screening service)
Text: Data from these screens are available on request.

[6] = test system: MV-4-11 NRAS G12D Clone 1; assay: Growth inhibition of NRAS G12D clone; format: cell-based, human
Method: (§1) MV-4-11 cells expressing NRAS^G12D were prepared by transduction with a lentiviral vector encoding the NRAS^G12D mutation. Assays using a panel of parental Ba/F3 into which an additional copy of either WT or a mutant form of FLT3 was introduced were performed at Kyinno Biotechnology Co., Ltd. All cell lines were short tandem repeat authenticated at ATCC or at DSMZ when originally obtained, and no further authentication was done after receipt of the cells in the laboratory.
(§2) Assays using Ba/F3 cells expressing WT and mutant forms of FLT3 were performed by Kyinno Biotechnology. The cells were cultured in the medium recommended by the source for each cell line. Growth inhibition assays were performed using either Cell Titer 96 Aqueous One Solution Cell Proliferation assay (Promega, # G3581) or CCK8 (Dojindo, # CK-04). […] IC50 values were determined from growth inhibition curves fitted using GraphPad Prism and a nonlinear regression model with sigmoidal dose response. Unless otherwise indicated, data are presented as mean ± SEM.

[7] = test system: MV-4-11 NRAS G12D Clone 4; assay: Growth inhibition of NRAS G12D clone; format: cell-based, human; settings: Homo sapiens, MV4-11; MV-4-11 NRAS G12D, high expression; mean ± SEM; read-out: GI50 (nM) Clone 4
Method: as §1, §2

[8] = test system: MV-4-11 NRAS G12D Clone 15; assay: Growth inhibition of NRAS G12D clone; format: cell-based, human
Method: as §1, §2

[9] = test system: Ba/F3 cells expressing various mutant forms of FLT3; assay: Growth inhibition of Ba/F3 cells; format: cell-based, murine; settings: Mus musculus, BaF3; Ba/F3, various mutant forms of FLT3, range
Method: as §1, with “MV-4-11 (CRL-9591), HS-5 (CRL-3611), and KG1a (CCL-246.1) cells were obtained from ATCC. MOLM-13 (ACC 554) and MOLM-14 (ACC 777) were obtained from DSMZ (Deutsche Sammlung von Mikroorganismen und Zellkulturen). MOLM-14 cells contain one WT FLT3 allele and one FLT3-ITD allele. MOLM-14 FLT3-ITD/F691 cells were prepared by transfection of MOLM-14 cells with a vector expressing the FLT3 TKD F691L mutation. MV-4-11” for “MV-4-11”
as §2, with “Unless otherwise indicated, data are presented as mean ± SEM.” left out

[10] = test system: AML cell lines expressing FLT3 ITD (MV-4-11, MOLM-13, and MOLM-14); assay: Growth inhibition of AML cell lines; format: cell-based; settings: Homo sapiens; range over MV-4-11, MOLM-13, MOLM-14
Method: as §1, with “MV-4-11 (CRL-9591), HS-5 (CRL-3611), and KG1a (CCL-246.1) cells were obtained from ATCC. MOLM-13 (ACC 554) and MOLM-14 (ACC 777) were obtained from DSMZ (Deutsche Sammlung von Mikroorganismen und Zellkulturen). MOLM-14 cells contain one WT FLT3 allele and one FLT3-ITD allele. MOLM-14 FLT3-ITD/F691 cells were prepared by transfection of MOLM-14 cells with a vector expressing the FLT3 TKD F691L mutation. MV-4-11” for “MV-4-11”
as §2, with “Unless otherwise indicated, data are presented as mean ± SEM.” left out

[11] = target: CYP2C8 (Homo sapiens, UniProt P10632); assay: CYP inhibition; format: in vitro ADME
[12] = test system: TUS/R line 4 (MOLM-14); assay: Growth inhibition of TUS-resistant subline; format: cell-based, human; settings: Homo sapiens
[13] = test system: MCL1 in parental MOLM-14 cells; assay: Western blot of apoptotic proteins; settings: 75 nmol/L TUS, 48-hour exposure
[14] = test system: Ba/F3 cells FLT3 WT; assay: Growth inhibition of Ba/F3 cells; format: cell-based, murine
Method: as §1, §2

[15] = test system: Ba/F3 cells FLT3 ITD; assay: Growth inhibition of Ba/F3 cells; format: cell-based, murine; settings: Mus musculus
Method: as §1, §2

[16] = test system: Ba/F3 cells FLT3 D835Y; assay: Growth inhibition of Ba/F3 cells; format: cell-based, murine; settings: Mus musculus
Method: as §1, §2

[17] = test system: Ba/F3 cells FLT3 ITD/F691L; assay: Growth inhibition of Ba/F3 cells; format: cell-based, murine; settings: Mus musculus, BaF3
Method: as §1, §2

[18] = test system: Ba/F3 cells FLT3 ITD/D835Y; assay: Growth inhibition of Ba/F3 cells; format: cell-based, murine; settings: Mus musculus, BaF3
Method: as §1, §2

[19] = mouse, plasma, mice, oral doses of 1, 3, 10, and 30 mg/kg
[20] = 13 to […]-fold increase in NRAS G12D expression
[21] = Homo sapiens, MV4-11, MV-4-11 NRAS G12D, mean ± SEM

T1 sequence (P51812 whole entry): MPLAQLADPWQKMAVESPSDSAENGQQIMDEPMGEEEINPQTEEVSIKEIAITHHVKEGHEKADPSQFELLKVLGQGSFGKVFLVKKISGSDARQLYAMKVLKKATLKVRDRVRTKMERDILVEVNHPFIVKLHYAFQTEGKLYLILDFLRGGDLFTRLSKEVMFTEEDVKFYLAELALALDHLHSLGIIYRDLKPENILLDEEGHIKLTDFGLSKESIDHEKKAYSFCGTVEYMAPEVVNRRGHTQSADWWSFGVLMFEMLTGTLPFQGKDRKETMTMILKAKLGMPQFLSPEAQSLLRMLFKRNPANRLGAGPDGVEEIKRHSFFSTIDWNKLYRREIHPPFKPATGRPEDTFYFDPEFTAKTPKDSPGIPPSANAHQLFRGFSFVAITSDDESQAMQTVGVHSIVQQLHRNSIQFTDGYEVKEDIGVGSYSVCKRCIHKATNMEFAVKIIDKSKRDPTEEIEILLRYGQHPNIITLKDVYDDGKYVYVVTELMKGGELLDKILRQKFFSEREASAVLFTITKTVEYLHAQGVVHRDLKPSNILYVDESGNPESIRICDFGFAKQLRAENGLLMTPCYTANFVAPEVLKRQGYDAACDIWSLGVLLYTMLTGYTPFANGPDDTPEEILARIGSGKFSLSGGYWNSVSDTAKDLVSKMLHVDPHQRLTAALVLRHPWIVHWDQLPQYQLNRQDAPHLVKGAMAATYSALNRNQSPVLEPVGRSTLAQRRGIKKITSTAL
Chain of CYP2C8 (P10632 whole entry): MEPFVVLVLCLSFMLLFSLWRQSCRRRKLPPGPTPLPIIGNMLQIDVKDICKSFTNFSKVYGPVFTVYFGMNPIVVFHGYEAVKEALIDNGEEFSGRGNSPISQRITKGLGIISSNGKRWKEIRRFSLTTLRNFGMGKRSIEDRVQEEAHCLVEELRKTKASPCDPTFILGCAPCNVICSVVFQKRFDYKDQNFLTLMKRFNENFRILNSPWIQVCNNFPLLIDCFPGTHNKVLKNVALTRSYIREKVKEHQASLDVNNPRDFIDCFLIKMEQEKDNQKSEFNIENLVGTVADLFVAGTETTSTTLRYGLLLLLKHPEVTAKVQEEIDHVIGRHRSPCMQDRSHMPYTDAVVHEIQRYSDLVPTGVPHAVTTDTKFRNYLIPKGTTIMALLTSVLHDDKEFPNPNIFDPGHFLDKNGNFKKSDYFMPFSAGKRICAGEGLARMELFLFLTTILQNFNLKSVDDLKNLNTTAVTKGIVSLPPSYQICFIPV

Q: With Cc1ccc2c(-c3nc(Nc4cc(CN5C[C@@H](C)N[C@@H](C)C5)cc(C5CC5)c4)ncc3Cl)c[nH]c2c1 [TUS, Tuspetinib] as the compound, how does the “dose proportionality of systemic exposure” value ([1]; mice, oral 1 to 30 mg/kg) read?
A: greater than dose proportional

Q: What about the clearance ([1]; mouse, plasma, male mice, single intravenous dose of 3 mg/kg) of the same compound?
A: 5 mL/min/kg

Q: And the Vd ([1]; mouse, plasma, male mice, single intravenous dose of 3 mg/kg, read-out: Vss)?
A: 2.4 L/kg

Q: And the half-life ([1]; mouse, plasma, male mice, single intravenous dose of 3 mg/kg, read-out: terminal plasma half-life (converted))?
A: 5.5 h

Q: What about the Tmax [1, 19] of the same compound?
A: 1 to 4 h

Q: And the bioavailability [1, 19]?
A: 21.4 to 47.2%

Q: What about the “tolerability / weight loss” value [2] of the same compound?
A: well tolerated in mice with no significant weight loss

Q: What about the “Neuropharmacology and respiratory function assessment” value [3] of the same compound?
A: no concerns

Q: What about the “main target organ of toxicity” value ([3]; repeat daily dose up to 4 weeks) of the same compound?
A: lymphoid organs

Q: And the GI50 ([4]; MOLM-14, read-out: GI50 (nM) TUS/R line 3, mean ± SEM (Supplementary Table 6))?
A: 108 ± 24 nM

Q: And the IC50 ([4]; MOLM-14, read-out: IC50 (nmol/L), Mean ± SEM, TUS/R line 3)?
A: 108 ± 24 nmol/L

Q: What about the IC50 [5] of the same compound?
A: 9.7 nM

Q: And the “change in sensitivity, clone 1” value [6, 20]?
A: did not alter sensitivity

Q: What about the GI50 [6, 21] of the same compound?
A: 8.7 ± 3 nM

Q: What about the GI50 [7] of the same compound?
A: 69.9 ± 7.4 nM

Q: And the “change in sensitivity, clone 15” value [8, 20]?
A: did not alter sensitivity

Q: And the GI50 [8, 21]?
A: 7.7 ± 3.1 nM

Q: And the GI50 [9]?
A: 2.5 to 56 nM

Q: What about the GI50 [10] of the same compound?
A: 1.3 to 5.2 nM

Q: What about the Ki [11] of the same compound?
A: < 1000 nM

Q: What about the GI50 ([12]; MOLM-14, read-out: GI50 (nM) TUS/R line 4, mean ± SEM (Supplementary Table 6)) of the same compound?
A: 144 ± 31 nM

Q: What about the IC50 ([12]; MOLM-14, read-out: IC50 (nmol/L), Mean ± SEM, TUS/R line 4) of the same compound?
A: 144 ± 31.5 nmol/L

Q: And the “reduction of MCL1” value [13]?
A: 70%

Q: What about the GI50 ([14]; Ba/F3 FLT3 WT) of the same compound?
A: < 9.1 nM

Q: What about the GI50 ([14]; Mus musculus, BaF3, Ba/F3 FLT3 WT, read-out: GI50) of the same compound?
A: 9.1 nM

Q: What about the GI50 ([15]; BaF3, Ba/F3 FLT3 ITD) of the same compound?
A: < 9.1 nM

Q: What about the GI50 ([15]; BaF3, Ba/F3 FLT3 ITD, mean ± SD, read-out: GI50) of the same compound?
A: 2.5 ± 0.4 nM

Q: And the GI50 ([16]; BaF3, Ba/F3 FLT3 D835Y)?
A: < 9.1 nM

Q: And the GI50 ([16]; BaF3, Ba/F3 FLT3 D835Y, mean ± SD, read-out: GI50)?
A: 7.3 ± 3.5 nM

Q: And the GI50 [17]?
A: 56 nM

Q: What about the GI50 [18] of the same compound?
A: 16 nM
